Measurements from the supplement of paper PMC10307832.

Tests used:
Assay in all cases: relative viability (nuclei count vs DMSO), 5 days (fraction); higher = more cells survive
A549 = system: A549
In short: (§1)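 Relative viability was taken as the ratio of nuclei in treated wells to nuclei in vehicle wells. Lung cancer cell lines in 1536-well plates received compounds by pin tool one day after seeding, either one drug alone or a fixed anchor-drug dose plus five library-drug doses (not always all listed) in √10 steps. Nuclei were counted on 4× images after 5 days of treatment, and values are medians of duplicate plates.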

ChaGo-K-1 = system: ChaGo-K-1
In short: as §1

NCI-H1623 = system: NCI-H1623
In short: as §1

NCI-H1648 = system: NCI-H1648
In short: as §1

Row | Compound | relative viability (A549; first compound 0.04 µM) | relative viability (A549; first compound 0.1265 µM) | relative viability (A549; first compound 0.4 µM) | relative viability (A549; first compound 1.265 µM) | relative viability (A549; first compound 4 µM) | relative viability (ChaGo-K-1; first compound 0.04 µM) | relative viability (ChaGo-K-1; first compound 0.1265 µM) | relative viability (ChaGo-K-1; first compound 0.4 µM) | relative viability (ChaGo-K-1; first compound 1.265 µM) | relative viability (ChaGo-K-1; first compound 4 µM) | relative viability (NCI-H1623; first compound 0.04 µM) | relative viability (NCI-H1623; first compound 0.1265 µM) | relative viability (NCI-H1623; first compound 0.4 µM) | relative viability (NCI-H1623; first compound 4 µM) | relative viability (NCI-H1648; first compound 0.04 µM) | relative viability (NCI-H1648; first compound 0.1265 µM) | relative viability (NCI-H1648; first compound 0.4 µM) | relative viability (NCI-H1648; first compound 1.265 µM) | relative viability (NCI-H1648; first compound 4 µM) | relative viability (ChaGo-K-1; first compound 0.01 µM) | relative viability (ChaGo-K-1; first compound 0.03162 µM) | relative viability (ChaGo-K-1; first compound 0.3162 µM) | relative viability (NCI-H1623; first compound 0.01 µM) | relative viability (NCI-H1623; first compound 0.03162 µM) | relative viability (NCI-H1623; first compound 0.3162 µM) | relative viability (NCI-H1648; first compound 0.03162 µM) | relative viability (NCI-H1648; first compound 0.3162 µM) | relative viability (NCI-H1623; first compound 1.265 µM)
1 | COc1cc(N2CCC(C(N)=O)CC2)ccc1Nc1nc(N)c(Cl)c(Nc2ccccc2S(=O)(=O)C(C)C)n1 [HG-5-88-01] + N=C(N)NC(=N)NCCc1ccccc1 [Phenformin] (partner 250 µM) | 0.246 | 0.24 | 0.327 | 0.347 | 0.183 | 0.586 | 0.51 | 0.449 | 0.525 | 0.383 | 0.651 | 0.618 | 0.561 | 0.524 | – | – | – | – | – | – | – | – | – | – | – | – | – | –
2 | COc1cc(N2CCC(C(N)=O)CC2)ccc1Nc1nc(N)c(Cl)c(Nc2ccccc2S(=O)(=O)C(C)C)n1 [HG-5-88-01] + Cc1cc(Nc2cc(N3CCN(C)CC3)nc(Sc3ccc(NC(=O)C4CC4)cc3)n2)n[nH]1 [Tozasertib] (partner 0.1 µM) | – | – | – | – | – | 0.213 | 0.25 | 0.155 | 0.229 | 0.211 | 0.512 | 0.449 | 0.399 | 0.377 | 0.406 | 0.472 | 0.43 | 0.183 | 0.329 | – | – | – | – | – | – | – | – | –
3 | CC(C)Oc1cc(Nc2nc(N[C@@H](C)c3ccc(F)cn3)ncc2Cl)n[nH]1 [AZ23] + COc1cccc2cc(-c3nc([C@H]4CC[C@H](C(=O)O)CC4)n4ncnc(N)c34)[nH]c12 [OSI-027] (partner 0.5 µM) | – | – | – | – | – | – | – | – | – | – | – | – | – | – | – | – | – | – | – | 0.641 | 0.593 | 0.695 | 0.401 | 0.401 | 0.43 | 0.258 | 0.256 | –
4 | C[C@@H]1CN(CC(=O)Nc2ccc3c(c2)Cc2cccc(-c4cc(=O)cc(N5CCOCC5)o4)c2S3)C[C@H](C)O1 + COc1cccc2cc(-c3nc([C@H]4CC[C@H](C(=O)O)CC4)n4ncnc(N)c34)[nH]c12 [OSI-027] (partner 0.5 µM) | – | – | – | – | – | 0.525 | 0.593 | 0.531 | – | 0.533 | 0.411 | 0.413 | 0.412 | 0.381 | 0.247 | 0.258 | 0.242 | – | 0.235 | – | – | – | – | – | – | – | – | –
5 | Clc1ccc(Nc2nnc(Cc3ccncc3)c3ccccc23)cc1 [Vatalanib] + CCNC(=O)c1noc(-c2cc(C(C)C)c(O)cc2O)c1-c1ccc(CN2CCOCC2)cc1 [Luminespib] (partner 0.01 µM) | – | – | – | – | – | 0.636 | 0.608 | 0.671 | 0.471 | 0.45 | 0.428 | 0.616 | 0.579 | 0.478 | – | – | – | – | – | – | – | – | – | – | – | – | – | 0.471
6 | C[C@@H]1CN(CC(=O)Nc2ccc3c(c2)Cc2cccc(-c4cc(=O)cc(N5CCOCC5)o4)c2S3)C[C@H](C)O1 + Cc1nc(Nc2ncc(C(=O)Nc3c(C)cccc3Cl)s2)cc(N2CCN(CCO)CC2)n1 [Dasatinib] (partner 0.075 µM) | – | – | – | – | – | 0.603 | 0.617 | 0.553 | – | 0.524 | 0.57 | 0.555 | 0.51 | 0.588 | – | – | – | – | – | – | – | – | – | – | – | – | – | –
7 | COc1cc(N2CCC(C(N)=O)CC2)ccc1Nc1nc(N)c(Cl)c(Nc2ccccc2S(=O)(=O)C(C)C)n1 [HG-5-88-01] + CCNC(=O)c1noc(-c2cc(C(C)C)c(O)cc2O)c1-c1ccc(CN2CCOCC2)cc1 [Luminespib] (partner 0.01 µM) | – | – | – | – | – | 0.572 | 0.682 | 0.516 | 0.66 | 0.733 | 0.539 | 0.619 | 0.529 | 0.47 | – | – | – | – | – | – | – | – | – | – | – | – | – | –
